In patent publication EP0211584A1, “Antihypertensive agents” (AMERICAN HOME PRODUCTS CORPORATION, priority 1985, dated 1987):

How the values were obtained:
[1] = system: rabbit aortic smooth muscle; test: Ca+2 antagonism: relaxation of KCl-depolarized rabbit aortic smooth muscle strips; conditions: Oryctolagus cuniculus, 20 min, compound 1 x 10^-5M; 100mM KCl contraction; 20 minutes after addition; mean of two experiments; read-out: P.R. (percent relaxation of aortic tissue)
Protocol: The composition of PSS was as follows (mM): NaCl 112,KCI 5, NaHCO3 25 KH2PO4 1, MgSO4 1.2, CaCl2 2.5, dextrose 10. The lower end of each tissue strip was attached to a fixed post and the upper end to a Statham UC-4 transducer. Changes in force development were recorded on a Beckman Dynograph Polygraphic Recorder.
Following equilibration, the muscles were contracted in a depolarizing solution of PSS in which 100mM KCI was substituted for an equimolar concentration of NaCI. Following attainment of steady- state isometric force (20 min.), the test compound was added to afford a final concentration of 1 x 10^-5M. The inhibitory effect, expressed as percent relaxation, was determined from the mean of two experiments twenty minutes after the addition of the compound being tested.
(§1) The following examples illustrate the preparation of a representative number of compounds of this invention. After each example, the Ca+2 antagonist activity of the compound is presented in terms of percent relaxation of aortic tissue (P.R.) at 10-^5M concentration. […] Inhibition of super- precipitation (Antag. of Actin-Myosin interaction) is expressed as percent inhibition (mean ± standard error of the mean for at least 3 separate experiments) at a compound concentration. In the same manner, inhibition of myosin light chain phosphorylation (Antag. of MLCP) is expressed as a percent inhibition at a compound concentration. Similarly, the antihypertensive activity is reported in terms of millimetres mercury (mmHg) systolic blood pressure (B.P.) reduction at the stated time post 50 mg/kg oral dosing or other dosing as indicated.

[2] = system: arterial actin-myosin interactions; test: Inhibition of superprecipitation (antagonism of actin-myosin interaction), Silver et al.; type: biochemical; conditions: six minute time-point
Protocol: . The data reported herein was obtained at a six minute time-point rather than the 1.5, 5 and 12 minute time points indicated in the superprecipita- tion assay of the Silver et al paper.
as §1

[3] = molecular target: Ca^+2-calmodulin dependent myosin light chain phosphorylation (Bos taurus, UniProt Q28824); test: Inhibition of myosin light chain phosphorylation (MLCP), Silver et al.; type: biochemical; conditions: read-out: Antag. of MLCP (percent inhibition of myosin light chain phosphorylation)
Protocol: The data reported herein was obtained at a six minute time-point rather than the 1.5, 5 and 12 minute time points indicated in the superprecipita- tion assay of the Silver et al paper.
as §1

[4] = system: spontaneously hypertensive rats; test: Hypotensive effect: systolic blood pressure of spontaneously hypertensive rats; type: in vivo; conditions: mmHg per method
Protocol: The hypotensive in vivo effect of the compounds of this invention was determined by measuring changes in the systolic blood pressure of spontaneously hypertensive rats with a Decker Caudal Plethysmograph. The compound being tested was administered to a group of 4 rats and their systolic pressure was determined prior to and at 1.5 and 4 hours after compound administration. Initial testing was done by oral administration of the compound. Results (mmHg) are expressed as decreases in systolic blood pressure.
as §1

[5] = system: isolated paced intact rabbit atria; test: Cardiac depressant (negative inotropic) effect in isolated paced rabbit atria; conditions: Oryctolagus cuniculus; rabbit atria paced at 3Hz, 30°C, cumulative dosing; read-out: IC25 (concentration which produces 25% inhibition of isometric force)
Protocol: The potential for detrimental cardiac depressant (negative inotropic) effects of the compounds of this invention was assessed in isolated paced intact rabbit atria. […] Muscles (N=5-9/compound) were stimulated at a frequency of 3Hz with a WPI stimulator for a 60 minute equilibration period. Changes in isometric force were recorded as described for the aortic smooth muscle experiments, supra. […]

SMILES: CC1=C(C(=O)OCCc2ccccc2)C(c2c(F)c(F)c(F)c(F)c2F)C2=C(CNCC2=O)N1 (centres unmarked) [Example 18, 1,4,5,6,7,8-Hexahydro-2-methyl-5-oxo-4-(pentafluorophenyl)-1,7-naphthyridine-3-carboxylic acid 2-phenylethyl ester]
- inhibition at 10 µM [1]: 48%
- Antag. of Actin-Myosin (percent inhibition of superprecipitation) ([2]; 25µM): 42%
- Antag. of Actin-Myosin (percent inhibition of superprecipitation) ([2]; 50µM): 65%
- Antag. of Actin-Myosin (percent inhibition of superprecipitation) ([2]; 100µM): 78±2%
- inhibition at 25 µM [3]: 35%
- inhibition at 50 µM [3]: 64%
- inhibition at 100 µM [3]: 77 ± 3%
- B.P. (systolic blood pressure reduction) ([4]; dose 10mg/kg oral, at 1.5 hours): -27 mm
- B.P. (systolic blood pressure reduction) ([4]; dose 10mg/kg oral, at 4 hours): -24 mm
- IC25 [5]: 1000 nM

SMILES: CC1=C(C(=O)OCCOc2ccccc2)C(c2cccc(Cl)c2Cl)C2=C(CNCC2=O)N1 (centres unmarked) [Example 19, 4-(2,3-Dichlorophenyl)-1,4,5,6,7,8-hexahydro-2-methyl-5-oxo-1,7-naphthyridine-3-carboxylic acid 2-phenoxyethylester]
- inhibition at 10 µM [1]: 62%
- Antag. of Actin-Myosin (percent inhibition of superprecipitation) ([2]; 100µM): 71%
- inhibition at 100 µM [3]: 69%
- B.P. (systolic blood pressure reduction) ([4]; dose 50mg/kg oral, at 1.5 hours): -50 mm
- B.P. (systolic blood pressure reduction) ([4]; dose 50mg/kg oral, at 4 hours): -73 mm
- IC25 [5]: 2500 nM

SMILES: CC1=C(C(=O)OCCCCOc2ccccc2)C(c2c(F)c(F)c(F)c(F)c2F)C2=C(CNCC2=O)N1 (centres unmarked) [Example 21, 1,4,5,6,7,8-Hexahydro-2-methyl-5-oxo-4-(pentafluorophenyl)-1,7-naphthyridine-3-carboxylic acid 4-phenoxvbutvl ester]
- inhibition at 10 µM [1]: 61%
- Antag. of Actin-Myosin (percent inhibition of superprecipitation) ([2]; 100µM): 80%
- inhibition at 100 µM [3]: 77%
- B.P. (systolic blood pressure reduction) ([4]; dose 25mg/kg oral, at 4 hours): -49 mm
- IC25 [5]: 1000 nM

SMILES: CC1=C(C(=O)OCCOc2cccc(Cl)c2Cl)C(c2c(F)ccc(Cl)c2Cl)C2=C(CNCC2=O)N1 (centres unmarked) [Example 25, 4-(2,3-dichloro-6-fluorophenyl)-1,4,5,6,7,8-hexahydro-2-methyl-5-oxo-1,7-naphthyridine-3-carboxylic acid 2-(2,3-dichlorophenoxy)ethyl ester]
- inhibition at 10 µM [1]: 59%
- Antag. of Actin-Myosin (percent inhibition of superprecipitation) ([2]; 10µM): 34±7%
- Antag. of Actin-Myosin (percent inhibition of superprecipitation) ([2]; 25µM): 55±2.5%
- Antag. of Actin-Myosin (percent inhibition of superprecipitation) ([2]; 50µM): 67±5%
- Antag. of Actin-Myosin (percent inhibition of superprecipitation) ([2]; 100µM): 73±2.4%
- inhibition at 10 µM ([3]; 10µM): 32 ± 8%
- inhibition at 25 µM [3]: 48 ± 3%
- inhibition at 50 µM [3]: 60 ± 4%
- inhibition at 100 µM [3]: 67 ± 2.3%
- B.P. (systolic blood pressure reduction) ([4]; dose 5mg/kg oral, at 1.5 hours): -18 mm
- B.P. (systolic blood pressure reduction) ([4]; dose 5mg/kg oral, at 4 hours): -40 mm
- B.P. (systolic blood pressure reduction) ([4]; dose 25mg/kg oral, at 1.5 hours): -74 mm
- B.P. (systolic blood pressure reduction) ([4]; dose 25mg/kg oral, at 4 hours): -70 mm
- IC25 [5]: 700 nM
